Reference: patent US8957070B2, “Glucokinase activator compounds, methods of activating glucokinase and methods of treating diabetes and obesity” (Takeda Pharmaceutical Company Limited, priority 2005, dated 2015)

target: T1, GST-hLGK1 (human liver type GK) (Homo sapiens, UniProt P35557); assay: Determination of GK activity value (Mant-ATP conversion, capillary electrophoresis); format: biochemical; settings: concentration necessary for activating 50% of the maximum GK activity value, 37° C., 60 min, D-glucose added
T1 construct: with a BamHI site added to immediately before the initiation codon; made in house; host or cells: Escherichia coli BL21
T1 sequence (P35557 1-464 isoform P35557-3): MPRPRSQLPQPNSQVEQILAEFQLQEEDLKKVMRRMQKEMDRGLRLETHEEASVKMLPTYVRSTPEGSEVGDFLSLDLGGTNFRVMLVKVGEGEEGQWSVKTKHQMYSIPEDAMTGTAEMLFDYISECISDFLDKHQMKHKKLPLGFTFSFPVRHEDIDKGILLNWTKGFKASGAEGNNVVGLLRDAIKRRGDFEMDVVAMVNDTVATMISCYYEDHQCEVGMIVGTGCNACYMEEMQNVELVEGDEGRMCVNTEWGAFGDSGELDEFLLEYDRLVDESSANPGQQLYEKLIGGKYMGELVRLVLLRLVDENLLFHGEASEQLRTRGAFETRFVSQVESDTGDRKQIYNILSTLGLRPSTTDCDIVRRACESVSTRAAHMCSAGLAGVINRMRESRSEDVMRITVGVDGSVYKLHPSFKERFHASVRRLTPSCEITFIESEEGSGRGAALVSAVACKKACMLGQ
Protocol: A solution (5 μL) of test compound in 50% dimethyl sulfoxide was added to each well of 384 well black plate (Nalge Nunc International K.K.). Then, a solution (35 μL) obtained by diluting GST-hLGK1 obtained in Reference Example 2A with measurement buffer (containing 50 mM HEPES (pH 7.4), 200 mM KCl, 5 mM MgCl2, 2.5 mM DTT and 50 μM 2′-(or -3′)-O—(N-methylanthraniloyl)adenosine 5′-triphosphate (Mant-ATP) (Jena Bioscience GmbH)) to 6 μg/mL was added to each well.
Each well was stood at 37° C. for 10 min, and 25 mM D-glucose solution (10 μL) was added to start the reaction.
Each well after the reaction was stood at 37° C. for 60 min, and the reaction was quenched by adding 25 μL of a quenching solution (containing 200 mM HEPES (pH 7.4), 20 mM MgCl2, 200 mM EDTA, 0.03% Triton-X 100, 0.3% Coating 3 reagent (Caliper Life Sciences, Inc.)).
Mant-ATP (substrate) and Mant-ADP (reaction resultant product) were separated from each well after the reaction by a microchip type capillary electrophoresis apparatus 250 HTS (Caliper Life Sciences, Inc.). The reaction rate [(reaction resultant product peak height)/(reaction resultant product peak height+substrate peak height)×100(%)] was calculated from the ratio of the substrate peak height and reaction resultant product peak height obtained by fluorescence detection (excitation wavelength 355 nm, measurement wavelength 460 nm) and used as the index of GK activity.
As a control group, the reaction rate was calculated in the same manner as above except that “solution in 50% dimethyl sulfoxide” was used instead of “solution of test compound in 50% dimethyl sulfoxide”.
The percentage obtained by dividing the reaction rate of the well added with the test compound (test compound addition group) by the reaction rate of the well added with 50% solution in dimethyl sulfoxide alone (control group) was taken as the GK activity value of the test compound, and the concentration of the test compound necessary for activating 50% of the maximum value of the activity value is shown as EC50 value.

EC50 [nM]	Structure (SMILES)
19	CN(c1ccc(Cl)c2cc(-c3ncc(CO)s3)[nH]c12)S(=O)(=O)c1cccs1 [Example 261, N-{4-chloro-2-[5-(hydroxymethyl)-1,3-thiazol-2-yl]-1H-indol-7-yl}-N-methylthiophene-2-sulfonamide]
35	CCN(c1cccc2cc(-c3ncc(COc4ccc(C(=O)O)cc4)s3)[nH]c12)S(=O)(=O)c1cccs1 [Example 280, 4-[(2-{7-[ethyl(2-thienylsulfonyl)amino]-1H-indol-2-yl}-1,3-thiazol-5-yl)methoxy]benzoic acid]
510	CN(c1cccc2cc(-c3nccs3)[nH]c12)S(=O)(=O)c1nccn1C [Example 209, N,1-Dimethyl-N-[2-(1,3-thiazol-2-yl)-1H-indol-7-yl]-1H-imidazole-2-sulfonamide]

Continued, molecule first:

Structure (SMILES)	EC50 [nM]
CCN(c1cccc2cc(C3=NCCS3)[nH]c12)S(=O)(=O)c1cccs1 [Example 104, N-[2-(4,5-Dihydro-1,3-thiazol-2-yl)-1H-indol-7-yl]-N-ethylthiophene-2-sulfonamide]	34
Cc1cc(NS(=O)(=O)c2cccs2)c2[nH]c3c(c2c1)CCNC3=O [Example 52, N-(6-Methyl-1-oxo-2,3,4,9-tetrahydro-1H-β-carbolin-8-yl)thiophene-2-sulfonamide]	2000
CN(c1cc(OC(F)(F)F)cc2cc(C3=NCCS3)[nH]c12)S(=O)(=O)c1cccs1 [Example 169, N-[2-(4,5-dihydro-1,3-thiazol-2-yl)-5-(trifluoromethoxy)-1H-indol-7-yl]-N-methylthiophene-2-sulfonamide]	22
CN(c1cccc2cc(C3=NCCS3)[nH]c12)S(=O)(=O)c1cccs1 [Example 86, N-[2-(4,5-Dihydro-1,3-thiazol-2-yl)-1H-indol-7-yl]-N-methylthiophene-2-sulfonamide]	27
CCOC(=O)c1[nH]c2c(NS(=O)(=O)c3cccs3)cccc2c1C [Example 23, Ethyl 3-methyl-7-[(2-thienylsulfonyl)amino]-1H-indole-2-carboxylate]	2700
O=S(=O)(Nc1cccc2cc(-c3ncon3)[nH]c12)c1cccs1 [Example 17, N-[2-(1,2,4-Oxadiazol-3-yl)-1H-indol-7-yl]thiophene-2-sulfonamide]	4800
CN(c1cc(F)cc2cc(C3=NCCS3)[nH]c12)S(=O)(=O)c1cccs1 [Example 165, N-[2-(4,5-dihydro-1,3-thiazol-2-yl)-5-fluoro-1H-indol-7-yl]-N-methylthiophene-2-sulfonamide]	28
O=S(=O)(Nc1cccc2cc(-c3ccccn3)[nH]c12)c1cccs1 [Example 8, N-[2-(Pyridin-2-yl)-1H-indol-7-yl]thiophene-2-sulfonamide]	1500
O=S(=O)(Nc1cccc2cc(C3=NCCO3)[nH]c12)c1cccs1 [Example 5, N-[2-(4,5-Dihydro-1,3-oxazol-2-yl)-1H-indol-7-yl]thiophene-2-sulfonamide]	1200
Cc1c(C2=NCCS2)[nH]c2c(NS(=O)(=O)c3cccs3)cccc12 [Example 26, N-[2-(4,5-Dihydro-1,3-thiazol-2-yl)-3-methyl-1H-indol-7-yl]thiophene-2-sulfonamide]	1700
O=S(=O)(Nc1cccc2cc(C3=NCCS3)[nH]c12)c1cccs1 [Example 3, N-[2-(4,5-dihydro-1,3-thiazol-2-yl)-1H-indol-7-yl]thiophene-2-sulfonamide]	110
O=S(=O)(Nc1cccc2cc(-c3nccs3)[nH]c12)c1cccs1 [Example 7, N-[2-(1,3-Thiazol-2-yl)-1H-indol-7-yl]thiophene-2-sulfonamide]	240
CN(c1cccc2cc(-c3ncc(CN4CCOCC4)s3)[nH]c12)S(=O)(=O)c1cccs1 [Example 146, N-Methyl-N-{2-[5-(morpholin-4-ylmethyl)-1,3-thiazol-2-yl]-1H-indol-7-yl}thiophene-2-sulfonamide]	180
CCCSc1ccc(NS(=O)(=O)c2cccs2)c2[nH]c(C(=O)OCC)cc12 [Example 65, Ethyl 4-(propylthio)-7-[(2-thienylsulfonyl)amino]-1H-indole-2-carboxylate]	390
CCOC(=O)Cc1cnc(-c2cc3cccc(N(C)S(=O)(=O)c4cccs4)c3[nH]2)s1 [Example 137, Ethyl (2-{7-[methyl(2-thienylsulfonyl)amino]-1H-indol-2-yl}-1,3-thiazol-5-yl)acetate]	48
CN(c1cccc2cc(-c3nccs3)[nH]c12)S(=O)(=O)c1cccs1 [Example 97, N-Methyl-N-[2-(1,3-thiazol-2-yl)-1H-indol-7-yl]thiophene-2-sulfonamide]	77
CN(c1cccc2cc(-c3ncc(CCC#N)s3)[nH]c12)S(=O)(=O)c1cccs1 [Example 151, N-{2-[5-(2-Cyanoethyl)-1,3-thiazol-2-yl]-1H-indol-7-yl}-N-methylthiophene-2-sulfonamide]	80
O=C1CCCc2c1[nH]c1c(NS(=O)(=O)c3cccs3)cccc21 [Example 11, N-(1-Oxo-2,3,4,9-tetrahydro-1H-carbazol-8-yl) thiophene-2-sulfonamide]	1400

tested on: not given; assay: not given; settings: not given

melting point [°C]	Structure (SMILES)
152 to 153	CCN(c1ccc(C)c2cc(-c3ncc(C(C)O)s3)[nH]c12)S(=O)(=O)c1cccs1 (centres unmarked) [Example 249, N-Ethyl-N-{2-[5-(1-hydroxyethyl)-1,3-thiazol-2-yl]-4-methyl-1H-indol-7-yl}thiophene-2-sulfonamide]
189 to 190	CCN(c1cc(C)c(C)c2cc(-c3ncc(CO)s3)[nH]c12)S(=O)(=O)c1cccs1 [Example 254, N-Ethyl-N-{2-[5-(hydroxymethyl)-1,3-thiazol-2-yl]-4,5-dimethyl-1H-indol-7-yl}thiophene-2-sulfonamide]
184 to 185	Cc1ccc(N(C)S(=O)(=O)c2cccs2)c2[nH]c(-c3ncc(CO)s3)cc12 [Example 245, N-{2-[5-(Hydroxymethyl)-1,3-thiazol-2-yl]-4-methyl-1H-indol-7-yl}-N-methylthiophene-2-sulfonamide]
148 to 149	CCOC(=O)c1cc2c(C)ccc(N(CC)S(=O)(=O)c3cccs3)c2[nH]1 [Example 246, Ethyl 7-[ethyl(2-thienylsulfonyl)amino]-4-methyl-1H-indole-2-carboxylate]
166 to 167	CCN(c1ccc(C)c2cc(-c3ncc(CO)s3)[nH]c12)S(=O)(=O)c1cccs1 [Example 250, N-Ethyl-N-{2-[5-(hydroxymethyl)-1,3-thiazol-2-yl]-4-methyl-1H-indol-7-yl}thiophene-2-sulfonamide]
134 to 135	CCOC(=O)c1cc2c(C)c(C)cc(N(CC)S(=O)(=O)c3cccs3)c2[nH]1 [Example 251, Ethyl 7-[ethyl(2-thienylsulfonyl)amino]-4,5-dimethyl-1H-indole-2-carboxylate]
159 to 160	Cc1ccc(N(C)S(=O)(=O)c2cccs2)c2[nH]c(-c3nccs3)cc12 [Example 177, N-Methyl-N-[4-methyl-2-(1,3-thiazol-2-yl)-1H-indol-7-yl]thiophene-2-sulfonamide]

More lines, now with the values behind:

Structure (SMILES)	melting point [°C]
Cc1ccc(N(C)S(=O)(=O)c2cccs2)c2[nH]c(C(=O)O)cc12 [Example 175, 4-Methyl-7-[methyl (2-thienylsulfonyl)amino]-1H-indole-2-carboxylic acid]	223 to 225
CNc1nc(-c2cc3cccc(N(C)S(=O)(=O)c4cccs4)c3[nH]2)cs1 [Example 174, N-Methyl-N-{2-[2-(methylamino)-1,3-thiazol-4-yl]-1H-indol-7-yl}thiophene-2-sulfonamide]	162 to 163
CN(c1cc(OC(F)(F)F)cc2cc(C(=O)O)[nH]c12)S(=O)(=O)c1cccs1 [Example 167, 7-[Methyl(2-thienylsulfonyl)amino]-5-(trifluoromethoxy)-1H-indole-2-carboxylic acid]	245 to 246
Cc1nc(-c2cc3cccc(N(C)S(=O)(=O)c4cccs4)c3[nH]2)cs1 [Example 173, N-Methyl-N-[2-(2-methyl-1,3-thiazol-4-yl)-1H-indol-7-yl]thiophene-2-sulfonamide]	161 to 162
